Measurements reported in PubChem BioAssay (NCI).
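These data come from cells grown in 96-well plates and exposed to compound for 48 hours at five concentrations. GI50 marks 50% less growth. Definition used: TGI = concentration required for complete inhibition of growth.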

Assays:
Assay in all cases: inhibition of tumour cell growth, NCI panel, 48 h
HT29 colon = test system: HT29 colon
NCI-H226 lung = test system: NCI-H226 lung
NCI-H522 lung = test system: NCI-H522 lung
A498 renal = test system: A498 renal
SNB-75 CNS = test system: SNB-75 CNS
HCC-2998 colon = test system: HCC-2998 colon
786-0 renal = test system: 786-0 renal
SK-OV-3 ovarian = test system: SK-OV-3 ovarian
HOP-92 NSCLC = test system: HOP-92 NSCLC
SW-620 colon = test system: SW-620 colon

Structure (SMILES) | GI50 (HT29 colon) | TGI (HT29 colon) | GI50 (NCI-H226 lung) | TGI (NCI-H226 lung) | GI50 (NCI-H522 lung) | TGI (NCI-H522 lung) | GI50 (A498 renal) | TGI (A498 renal) | GI50 (SNB-75 CNS) | TGI (SNB-75 CNS) | GI50 (HCC-2998 colon) | TGI (HCC-2998 colon) | GI50 (786-0 renal) | TGI (786-0 renal) | GI50 (SK-OV-3 ovarian) | TGI (SK-OV-3 ovarian) | GI50 (HOP-92 NSCLC) | TGI (HOP-92 NSCLC) | GI50 (SW-620 colon) | TGI (SW-620 colon)
CNC(=O)c1cncc(/C=C/c2c(C)cccc2C)c1 | 16.2 µM | > 25 µM | > 25 µM | > 25 µM | > 17.8 µM | > 25 µM | 8.95 µM | > 25 µM | 4.83 µM | > 18.2 µM | > 25 µM | > 25 µM | > 25 µM | > 25 µM | > 25 µM | > 25 µM | 3.34 µM | 22.9 µM | > 25 µM | > 25 µM
Cc1ccc2c(N/N=C\c3ccco3)cc(C)nc2n1 | 2.7 µM | 8.95 µM | 20.1 µM | 60.3 µM | 2.92 µM | 9.84 µM | 11 µM | 23.9 µM | 11.4 µM | 26.4 µM | 2.7 µM | 7.4 µM | 2.25 µM | 6.11 µM | 8.74 µM | 22.7 µM |  |  | 3.01 µM | 11.6 µM
O=C1/C(=C/c2ccccc2)CN(CCC(=O)N2C/C(=C\c3ccccc3)C(=O)/C(=C/c3ccccc3)C2)C/C1=C\c1ccccc1 | 0.635 µM | > 55.9 µM | 12.7 µM | 41.3 µM | 14.6 µM | 62.7 µM | 1.5 µM | 17.8 µM | 10.7 µM | 35.3 µM | 1.71 µM | 8 µM | 9.8 µM | 32.9 µM | 24.9 µM | > 75.2 µM | 10.4 µM | 29.7 µM | 0.495 µM | 49.8 µM
CCC1CCCCN1C(=S)N/N=C(\C)c1ccccn1 (stereo not drawn) | < 0.0253 µM | 4.69 µM | 0.561 µM | 2.13 µM | 0.0912 µM | 1.82 µM | 0.136 µM | 1.93 µM | 0.479 µM | 2.12 µM | 0.156 µM | 2.76 µM | 0.853 µM | 2.39 µM | 0.304 µM | 2.46 µM | 0.175 µM | 1.85 µM | 0.0463 µM | 2.76 µM
NC1=NC(c2ccccc2)CC(c2cc(Cl)cc(Br)c2O)=N1 (stereo not drawn) |  | 27 µM |  | 34.3 µM |  | 15.4 µM |  | 35.7 µM |  | 28.3 µM |  | 26.4 µM |  | 31.5 µM |  | 42.7 µM |  | 38.2 µM |  | 26.2 µM
CC(=O)NC1C(OCc2ccccc2)OC(COC(=O)CCCCCNc2ccc([N+](=O)[O-])c3[nH]c4ccc(O)cc4c(=O)c23)C(O)C1OC(C)C(=O)N[C@@H](C)C(=O)N[C@H](CCC(=O)OCc1ccccc1)C(N)=O (stereo partly drawn) |  | 3.09 µM |  | 12.3 µM |  | 3.61 µM |  | 7.29 µM |  | 13.2 µM |  | 10.9 µM |  | 14.3 µM |  | 10.7 µM |  | 3.61 µM |  | 4.42 µM
O=C(c1cc2c(C(F)(F)F)onc2c2ccccc12)C(F)(F)F |  | > 61.7 µM |  | 13.5 µM |  | 6.25 µM |  | 34.9 µM |  | 15.4 µM |  | 60.4 µM |  | > 45.1 µM |  | 46.7 µM |  | 4.99 µM |  | > 100 µM
